Test results from US9828360B2 (Array BioPharma Inc., priority 2012, dated 2017).

Target: TrkA (Homo sapiens, UniProt P04629)
Assay: TrkA LanthaScreen Eu Kinase Binding Assay
Set-up: 6HIS tagged cytoplasmic domain from Invitrogen, Cat. No. PV3144; purchased Invitrogen PV3144
Conditions: averaged IC50 values, read-out: TrkA Enzyme IC50
Protocol: TrkA binding activity was determined in a TrkA LanthaScreen™ Eu Kinase Binding Assay. 5 nM His-tagged recombinant human TrkA (6HIS tagged cytoplasmic domain from Invitrogen, Cat. No. PV3144) was incubated with 4 nM Alexa-Fluor® Tracer 236 (Invitrogen Cat. No. PV5592), 2 nM biotinylated anti-His (Invitrogen Cat. No. PV6090), and 2 nM europium-labeled Streptavidin (Invitrogen Cat. No. PV5899), in buffer (25 mM MOPS, pH 7.5, 5 mM MgCl2, 0.005% Triton X-100). Three fold serial dilutions of compounds of the invention in DMSO were added to a final percentage of 2% DMSO. After 60-minute incubation at 22° C., the reaction was measured using the EnVision mutlimode plate reader (PerkinElmer) via TR-FRET dual wavelength detection at […]. The percent of control was calculated using a ratiometric emission factor. The IC50 values were determined by fitting a four parameter model to the percent of control data.
Table A provides averaged IC50 values for compounds of the invention when tested in the assay of Example A, where A represents an averaged IC50 value <100 nM; and B represents an averaged IC50 value from 100 to 1,000 nM.

Sequence of TrkA (P04629 440-796 limits assumed): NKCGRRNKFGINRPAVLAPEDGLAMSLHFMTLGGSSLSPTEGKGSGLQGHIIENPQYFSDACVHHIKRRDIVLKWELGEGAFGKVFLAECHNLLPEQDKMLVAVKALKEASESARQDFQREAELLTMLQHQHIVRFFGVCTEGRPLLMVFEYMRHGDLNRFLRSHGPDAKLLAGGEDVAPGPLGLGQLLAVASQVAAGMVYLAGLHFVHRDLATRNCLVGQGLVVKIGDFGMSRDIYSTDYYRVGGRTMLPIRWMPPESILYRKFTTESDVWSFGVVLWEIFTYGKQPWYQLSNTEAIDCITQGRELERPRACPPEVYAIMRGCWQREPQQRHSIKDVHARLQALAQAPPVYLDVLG

Compound | IC50 [nM]
COCCN1C[C@@H](NC(=O)Nc2cccnc2-c2ccccc2)[C@H](c2ccccc2)C1 (relative stereo) [Example 1, 1-(trans-1-(2-methoxyethyl)-4-phenylpyrrolidin-3-yl)-3-(2-phenylpyridin-3-yl)urea] | < 100
COCCN1C[C@@H](NC(=O)Nc2cc(Br)cnc2-c2ccccc2)[C@H](c2ccccc2)C1 (relative stereo) [Example 3] | < 100
COCCN1C[C@@H](NC(=O)Nc2cc(Br)cnc2-c2ccccc2)[C@H](c2ccc(F)c(F)c2)C1 [Example 6, 1-(5-bromo-2-phenylpyridin-3-yl)-3-((3S,4R)-4-(3,4-difluorophenyl)-1-(2-methoxyethyl)pyrrolidin-3-yl)urea] | < 100
COCCN1C[C@@H](NC(=O)Nc2cc(-c3ccccc3)cnc2-c2ccccc2)[C@H](c2ccccc2)C1 [Example 7, 1-(2,5-diphenylpyridin-3-yl)-3-((3S,4R)-1-(2-methoxyethyl)-4-phenylpyrrolidin-3-yl)urea] | < 100
COCCN1C[C@@H](NC(=O)Nc2cc(-c3ccccc3)cnc2C)[C@H](c2ccc(F)c(F)c2)C1 [Example 10, 1-((3S,4R)-4-(3,4-difluorophenyl)-1-(2-methoxyethyl)pyrrolidin-3-yl)-3-(2-methyl-5-phenylpyridin-3-yl)urea] | 100 to 1000
COCCN1C[C@@H](NC(=O)Nc2ccc(-c3cccnc3)nc2C)[C@H](c2ccc(F)c(F)c2)C1 [Example 14, 1-((3S,4R)-4-(3,4-difluorophenyl)-1-(2-methoxyethyl)pyrrolidin-3-yl)-3-(6-methyl-[2,3′-bipyridin]-5-yl)urea] | < 100
COCCN1C[C@@H](NC(=O)Nc2cc(-c3cccnc3)cnc2C)[C@H](c2ccc(F)c(F)c2)C1 [Example 15, 1-((3S,4R)-4-(3,4-difluorophenyl)-1-(2-methoxyethyl)pyrrolidin-3-yl)-3-(6-methyl-[3,3′-bipyridin]-5-yl)urea] | 100 to 1000
COCCN1C[C@@H](NC(=O)Nc2ccc(-c3ccc(S(C)(=O)=O)cc3)nc2C)[C@H](c2ccc(F)c(F)c2)C1 [Example 17, 1-((3S,4R)-4-(3,4-difluorophenyl)-1-(2-methoxyethyl)pyrrolidin-3-yl)-3-(2-methyl-6-(4-(methylsulfonyl)phenyl)pyridin-3-yl)urea] | 100 to 1000
COCCN1C[C@@H](NC(=O)Nc2ccc(-c3cccc(S(C)(=O)=O)c3)nc2C)[C@H](c2ccc(F)c(F)c2)C1 [Example 18, 1-((3S,4R)-4-(3,4-difluorophenyl)-1-(2-methoxyethyl)pyrrolidin-3-yl)-3-(2-methyl-6-(3-(methylsulfonyl)phenyl)pyridin-3-yl)urea] | 100 to 1000
COCCN1C[C@@H](NC(=O)Nc2ccc(=O)[nH]c2-c2ccccc2)[C@H](c2ccc(F)c(F)c2)C1 [Example 20, 1-((3S,4R)-4-(3,4-difluorophenyl)-1-(2-methoxyethyl)pyrrolidin-3-yl)-3-(6-oxo-2-phenyl-1,6-dihydropyridin-3-yl)urea] | < 100
COCCN1C[C@@H](NC(=O)Nc2ccc(Cl)nc2-c2ccccc2)[C@H](c2ccc(F)c(F)c2)C1 [Example 21, 1-(6-chloro-2-phenylpyridin-3-yl)-3-((3S,4R)-4-(3,4-difluorophenyl)-1-(2-methoxyethyl)pyrrolidin-3-yl)urea] | < 100
COCCN1C[C@@H](NC(=O)Nc2cncnc2-c2ccccc2)[C@H](c2ccc(F)c(F)c2)C1 [Example 23, 1-((3S,4R)-4-(3,4-difluorophenyl)-1-(2-methoxyethyl)pyrrolidin-3-yl)-3-(4-phenylpyrimidin-5-yl)urea] | < 100
CCOc1ccc(NC(=O)N[C@@H]2CN(CCOC)C[C@H]2c2ccc(F)c(F)c2)c(-c2ccccc2)n1 [Example 25] | < 100
CCc1ccc(NC(=O)N[C@@H]2CN(CCOC)C[C@H]2c2ccc(F)c(F)c2)c(-c2ccccc2)n1 [Example 28, 1-((3S,4R)-4-(3,4-difluorophenyl)-1-(2-methoxyethyl)pyrrolidin-3-yl)-3-(6-ethyl-2-phenylpyridin-3-yl)urea] | < 100
COCCN1C[C@@H](NC(=O)Nc2ccc(C)nc2-c2ccccc2)[C@H](c2ccc(F)c(F)c2)C1 [Example 29, 1-((3S,4R)-4-(3,4-difluorophenyl)-1-(2-methoxyethyl)pyrrolidin-3-yl)-3-(6-methyl-2-phenylpyridin-3-yl)urea] | < 100
COCCN1C[C@@H](NC(=O)Nc2cc(C)cnc2-c2ccccc2)[C@H](c2ccc(F)c(F)c2)C1 [Example 30, 1-((3S,4R)-4-(3,4-difluorophenyl)-1-(2-methoxyethyl)pyrrolidin-3-yl)-3-(5-methyl-2-phenylpyridin-3-yl)urea] | < 100

Further lines, results first:

IC50 [nM] | Compound
< 100 | COCCN1C[C@@H](NC(=O)Nc2cc(Cl)cnc2-c2ccccc2)[C@H](c2ccccc2)C1 (relative stereo) [Example 2, 1-(5-chloro-2-phenylpyridin-3-yl)-3-(trans-1-(2-methoxyethyl)-4-phenylpyrrolidin-3-yl)urea]
100 to 1000 | COCCN1C[C@@H](NC(=O)Nc2cc(S(C)(=O)=O)cnc2-c2ccccc2)[C@H](c2ccccc2)C1 (relative stereo) [Example 4, 1-(trans-1-(2-methoxyethyl)-4-phenylpyrrolidin-3-yl)-3-(5-(methylsulfonyl)-2-phenylpyridin-3-yl)urea]
100 to 1000 | COCCN1C[C@@H](NC(=O)Nc2c(-c3ccccc3)noc2C)[C@H](c2ccccc2)C1 (relative stereo) [Example 37, 1-((trans)-1-(2-methoxyethyl)-4-phenylpyrrolidin-3-yl)-3-(5-methyl-3-phenylisoxazol-4-yl)urea]
< 100 | COCCN1C[C@@H](NC(=O)Nc2cc(Br)cnc2-c2ccccc2)[C@H](c2ccccc2)C1 [Example 5, 1-(5-bromo-2-phenylpyridin-3-yl)-3-((3S,4R)-1-(2-methoxyethyl)-4-phenylpyrrolidin-3-yl)urea]
100 to 1000 | COCCN1C[C@@H](NC(=O)Nc2ccc(-c3ccccc3)nc2C)[C@H](c2ccccc2)C1 [Example 8, 1-((3S,4R)-1-(2-methoxyethyl)-4-phenylpyrrolidin-3-yl)-3-(2-methyl-6-phenylpyridin-3-yl)urea]
100 to 1000 | COCCN1C[C@@H](NC(=O)Nc2ccc(-c3ccccc3)nc2C)[C@H](c2ccc(F)c(F)c2)C1 [Example 9, 1-((3S,4R)-4-(3,4-difluorophenyl)-1-(2-methoxyethyl)pyrrolidin-3-yl)-3-(2-methyl-6-phenylpyridin-3-yl)urea]
< 100 | COCCN1C[C@@H](NC(=O)Nc2ccc(Br)nc2-c2ccccc2)[C@H](c2ccc(F)c(F)c2)C1 [Example 11, 1-(6-bromo-2-phenylpyridin-3-yl)-3-((3S,4R)-4-(3,4-difluorophenyl)-1-(2-methoxyethyl)pyrrolidin-3-yl)urea]
< 100 | COCCN1C[C@@H](NC(=O)Nc2ccc(S(C)(=O)=O)nc2-c2ccccc2)[C@H](c2ccc(F)c(F)c2)C1 [Example 12, 1-((3S,4R)-4-(3,4-difluorophenyl)-1-(2-methoxyethyl)pyrrolidin-3-yl)-3-(6-(methylsulfonyl)-2-phenylpyridin-3-yl)urea]
< 100 | COCCN1C[C@@H](NC(=O)Nc2cc(S(C)(=O)=O)cnc2-c2ccccc2)[C@H](c2ccc(F)c(F)c2)C1 [Example 13, 1-((3S,4R)-4-(3,4-difluorophenyl)-1-(2-methoxyethyl)pyrrolidin-3-yl)-3-(5-(methylsulfonyl)-2-phenylpyridin-3-yl)urea]
< 100 | COCCN1C[C@@H](NC(=O)Nc2ccc(OC)nc2-c2ccccc2)[C@H](c2ccc(F)c(F)c2)C1 [Example 16, 1-((3S,4R)-4-(3,4-difluorophenyl)-1-(2-methoxyethyl)pyrrolidin-3-yl)-3-(6-methoxy-2-phenylpyridin-3-yl)urea]
< 100 | COCCN1C[C@@H](NC(=O)Nc2cccnc2-c2ccccc2)[C@H](c2ccc(F)c(F)c2)C1 [Example 19, 1-((3S,4R)-4-(3,4-difluorophenyl)-1-(2-methoxyethyl)pyrrolidin-3-yl)-3-(2-phenylpyridin-3-yl)urea]
< 100 | COCCN1C[C@@H](NC(=O)Nc2ccc(S(=O)(=O)C3CC3)nc2-c2ccccc2)[C@H](c2ccc(F)c(F)c2)C1 [Example 22, 1-(6-(cyclopropylsulfonyl)-2-phenylpyridin-3-yl)-3-((3S,4R)-4-(3,4-difluorophenyl)-1-(2-methoxyethyl)pyrrolidin-3-yl)urea]
< 100 | COCCN1C[C@@H](NC(=O)Nc2ccc(C#N)nc2-c2ccccc2)[C@H](c2ccc(F)c(F)c2)C1 [Example 24, 1-(6-cyano-2-phenylpyridin-3-yl)-3-((3S,4R)-4-(3,4-difluorophenyl)-1-(2-methoxyethyl)pyrrolidin-3-yl)urea]
< 100 | COCCN1C[C@@H](NC(=O)Nc2cc(OC)cnc2-c2ccccc2)[C@H](c2ccc(F)c(F)c2)C1 [Example 26, 1-((3S,4R)-4-(3,4-difluorophenyl)-1-(2-methoxyethyl)pyrrolidin-3-yl)-3-(5-methoxy-2-phenylpyridin-3-yl)urea]
< 100 | COCCOc1ccc(NC(=O)N[C@@H]2CN(CCOC)C[C@H]2c2ccc(F)c(F)c2)c(-c2ccccc2)n1 [Example 27, 1-((3S,4R)-4-(3,4-difluorophenyl)-1-(2-methoxyethyl)pyrrolidin-3-yl)-3-(6-(2-methoxyethoxy)-2-phenylpyridin-3-yl)urea]
